Like-named read-outs stand apart in the source and are kept apart here.
How the values were obtained:
[1] = biological target: T1, eIF4AIMus (Mus musculus, UniProt P60843); assay: Malachite green RNA-dependent ATPase assay of eIF4AIMus; type: biochemical; conditions: for effect on the ATPase activity of eIF4AIMus in screen: screened at 500 μM
T1 construct: His tag; made in house; host or cells: Escherichia coli Rosetta (Novagen)
Experimental: (§1) The Rosetta Escherichia coli strain (Novagen) was used for the expression of His-tagged recombinant LieIF and mouse eIF4AI (eIF4AIMus) proteins using already described constructs. Protein expression was performed as previously described, except that cultures were induced with 0.5 mM IPTG. Cells were collected by centrifugation and stored at -20°C until needed. Pellets were resuspended in 10 ml of buffer A (Tris-HCl, pH 7.5, 300 mM NaCl) supplemented with 10 mM imidazole and 0.02% NP40 (lysis buffer). Lysozyme (10 μg/ml, Sigma-Aldrich, St. Louis, MO, USA) and 1x of complete protease inhibitor EDTA-free cocktail (Roche, Indianapolis, USA) were added. The mixtures were kept on ice for 30 min. Then, cells were ruptured by sonication four times for 20 seconds with a Cell Disruptor W375 (Heat System-Ultrasonic, Plainview, N.Y., USA) using a microprobe at a setting of 5 and a duty cycle of 60%. The material was centrifuged for 30 min at 15,000 rpm in a JA-20 rotor (Beckman Coulter, Villepinte, France) at 4°C, and the supernatant was loaded onto a 1 ml nickel-nitrilotriacetic acid (Ni-NTA) agarose column (Ni-NTA, Qiagen, Hilden, Germany) equilibrated with the lysis buffer. The column was washed with 20 ml buffer A supplemented with 25 mM imidazole and 0.02% NP40 (wash buffer 1), and then with 20 ml buffer A supplemented with 25 mM imidazole (wash buffer 2). Proteins were eluted with buffer A supplemented with 100 mM imidazole (elution buffer). The purity of the proteins was checked on 12% SDS-PAGE gels that were stained with Coomassie blue. Purified proteins were stored at -80°C after making 50% in glycerol (w/w). The proteins concentrations were determined using the Bio-Rad Protein Dye Assay (Biorad, Munich, Germany).
(§2) We used a colorimetric assay based on Malachite green as previously described. We optimized the previously published conditions for the LieIF and eIF4AIMus ATPase assays to fit microtiter plates and the screening conditions by varying the quantities of proteins, ATP and magnesium acetate, and by testing different sources and concentrations of RNA. Each reaction was done in 50 μl. The final reaction buffers contained 50 mM potassium acetate, 20 mM MES, pH 6, either 5 mM or 1 mM magnesium acetate for LieIF or eIF4AIMus respectively, 2 mM dithiothreitol (DTT), 0.1 mg/ml bovine serum albumin (BSA) and 0.34 mg/ml whole yeast RNA (Type XI, Sigma). Reactions were incubated at 37°C for various times up to 45 min, and were stopped by adding 5 μl of 0.5 M ethylenediaminetetraacetic acid (EDTA) at pH 8. In experiments testing the compounds, samples dissolved in DMSO were added to the reaction in different concentrations. The final concentration of DMSO in the reaction was 10% (v/v). The reaction rates were determined by a linear regression fit of the initial, linear phase of the curves. Reaction rates were determined in three independent experiments for each compound concentration. Data were analyzed with Kaleidagraph (Synergy).
Biochemical screening experiments were performed in 96-well plates. Column 1 and 12 contained full signal controls (no inhibitor) and background controls (no enzyme): wells A1 to D1 and E12 to H12 corresponded to negative controls; E1 to H1 and A12 to D12 corresponded to positive controls. Compounds were added in columns 2 to 11, at a 500 μM final concentration. ATPase test reactions were done in three independent experiments. The phosphate released was measured after 45 min. Results were reported as weighted means. Z’-scores were calculated for each plate from the full signal and background controls. Plates with Z’-values below 0.5 were discarded. The inhibition of ATPase activity was calculated as follow: [85] Percentageofinhibition=(μ^+-OD630nmforcompoundX)/(μ^+-μ^-)*100 (3) Selected hits were further tested with kinetic assays. Results were reported as ATPase reaction velocities. […]

[2] = biological target: T2, LieIF (Leishmania infantum, UniProt A4HRK0); assay: Malachite green RNA-dependent ATPase assay of LieIF; type: biochemical; conditions: for effect on the ATPase activity of LieIF in screen: screened at 500 μM
T2 construct: His tag; made in house; host or cells: Escherichia coli Rosetta (Novagen)
T2 sequence (A4HRK0 1-403): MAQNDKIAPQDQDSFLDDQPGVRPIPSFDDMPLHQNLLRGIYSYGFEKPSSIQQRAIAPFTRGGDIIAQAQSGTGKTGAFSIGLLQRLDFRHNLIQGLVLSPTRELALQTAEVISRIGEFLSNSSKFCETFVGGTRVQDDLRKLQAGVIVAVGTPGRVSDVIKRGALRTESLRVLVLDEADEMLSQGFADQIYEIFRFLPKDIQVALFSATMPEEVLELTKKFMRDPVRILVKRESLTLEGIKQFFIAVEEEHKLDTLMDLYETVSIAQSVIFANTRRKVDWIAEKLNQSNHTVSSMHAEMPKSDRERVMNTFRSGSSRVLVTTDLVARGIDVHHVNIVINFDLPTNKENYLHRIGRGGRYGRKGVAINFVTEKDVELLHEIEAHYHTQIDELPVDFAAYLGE
Experimental: as §1, §2
The Z’-factor is a statistical parameter used to measure the quality of a screening assay. For the biochemical screening, reactions were done with and without proteins as positive and negative controls, respectively. All assay conditions were identical to those described above. Positive controls were designed to replicate a positive hit in an inhibitor screen. Negative controls were designed as no enzymatic reactions. The phosphate released was measured after 45 min. Statistical analysis was performed using the equation: Z^′=1-3*(σ^++σ^-)/(μ^+-μ^-) (2) where μ^− and σ^− correspond to the mean absorbance and standard deviations respectively, for each reaction without enzyme (no activity), and μ^+ and σ^+ are the mean absorbance and standard deviations, respectively, for reaction wells in the presence of enzyme. The Z’-factor values above 0.5 were considered significant and corresponding plates were retained. […]

[3] = MTT cytotoxicity assay on THP-1-derived macrophages; conditions: human, THP-1-derived macrophages (PMA-differentiated)
Experimental: The human myelomonocytic cell line, THP-1 was ordered from the American Type Culture Collection (ATCC, TIB-202). [86] Cells were maintained in RPMI 1640/Glutamax-I media (Gibco BRL, Germany) supplemented with 10% heat-inactivated fetal calf serum (Gibco, Germany) plus penicillin G (100 U/ml) and streptomycin (100 g/ml). THP-1 cells were differentiated to macrophages after their treatment with 20 ng/ml phorbol 12-myristate 7-acetate (PMA) (Sigma, St. Louis, MO, USA) for 48 h at 37°C, 5% CO2. [87] […] [87]
For the cytotoxicity assay, we used the THP-1-derived macrophages (50,000 cells/well) seeded in 96-well plates and treated with serial concentrations of compounds (final concentrations of 1.5-100 μM) for 24h. After that, an MTT assay was performed as previously described to determine cell viability. [88] Thus, 20 μl of MTT solution (5 mg/ml) were added to each well and incubated at 25°C for 4h. Then, 150 μl of DMSO were added to each well to dissolve the blue formazan and the optical density (OD) was measured at 560 nm with a microplate reader ([sequence], Labsystems).
The cell viability of THP-1-derived macrophages was expressed as the percentage of the viable cell number in treated cells relative to the THP-1-derived macrophages treated with 1% DMSO. The 50% cytotoxic concentrations (CC50) were calculated for all the tested compounds by interpolation. All experiments were repeated three times in triplicate for each compound concentration.

[4] = test system: L. infantum promastigotes; assay: MTT viability assay on promastigotes; type: cell-based; conditions: Leishmania infantum, stationary phase promastigotes, 24h exposure
Experimental: The effect of the selected chemical compounds on the viability of L. infantum promastigotes was evaluated by a colorimetric MTT (3-(4,5-dimethylthiazol-2yl)-2,5-diphenyl tetrazolium bromide) assay that consisted in a reduction of tetrazolium salt to a soluble crystal (blue formazan) by the succinate dehydrogenase activity of mitochondria in living cells, which can be quantified by spectrophotometry as previously described. […] Briefly, 90 μl of promastigotes harvested from the stationary growth phase were added to a 96-well culture plate (5 × 10^5 cells/well) with 10 μl of various concentrations of the selected compounds (to obtain a final concentration of 1.5-100 μM) and incubated at 25°C for 24h. After incubation, 20 μl of MTT solution (5 mg/ml) were added to each well and incubated at 25°C for 4h. Then, 150 μl of DMSO was added to each well to dissolve the blue formazan and the optical density (OD) was measured at 560 nm with a microplate reader ([sequence], Labsystems). Mock treated-promastigotes in complete medium (with no drug, 1% DMSO) were used as positive control. Stock solutions of the compounds prepared for these experiments contained 100% DMSO. All subsequent dilutions were freshly made with RPMI 1640 (final concentration of 10% DMSO). Thus, all compounds, as well as the positive control, were tested at a final concentration of 1% DMSO per well.
The promastigotes viability was expressed as the percentage of the viable promastigotes in treated conditions relative to the 1% DMSO mock-treated promastigotes. The IC50 values were calculated for all the tested compounds by interpolation. […] All experiments were repeated three times in triplicate for each compound concentration. Absorbance measured was used to reflect promastigote or cell viability using the following formula: %cellviability=[(ODtest-ODblank)/(ODcontrol-ODblank)]*100 (4)

[5] = test system: L. infantum intramacrophage amastigotes; assay: Macrophage infection assay, intramacrophage amastigotes; type: cell-based, Leishmania infantum; conditions: infected THP-1-derived macrophages, 24h exposure
Experimental: [86] […] [87] […] [87]
After careful washing of PMA-treated THP-1 cells (50,000 cells/well) with warm serum-free RPMI-1640 (∼ 37°C) media, 50 μl of the diluted L. infantum promastigote culture were added at the optimized MOI (10:1). Control wells of THP-1 cells without the parasites, and THP-1 cells with the parasites, were set up in each 8-well Labtek slides. The slides were incubated at 37°C, 5% CO2 overnight. After incubation, infected wells were washed at least 3 times with serum-free RPMI-1640 media to ensure complete removal of non-engulfed promastigotes, and then they were incubated in presence of different concentrations of compounds for 24 h. Control groups were incubated in supplemented RPMI medium containing 1% DMSO. Cells were then fixed and stained with RAL 555 rapid stain kit (May-Grünwald Type) (Cell Path, Newtown, UK) following the manufacturer’s instructions. The number of infected cells per 100 macrophages and the total number of parasites per 100 cells observed were determined by light microscopy under immersion oil (1000X) by counting at least 100 cells per well. Three independent experiments were conducted for each compound concentration. These values allowed us to determine the mean values and standard deviations of the percentage of infected cells and the mean amastigote number per cell. To account for the overall parasite load, an Infection Index was calculated by multiplying these two values; then, to assess the infection inhibition by the compounds, the percentage of Inhibition Parasite Index (IPI) was determined as: IPI = 100 − ((Infection Index in treated cells/Infection Index in untreated cells) * 100).
The amastigote IC50 values were calculated for all tested compounds. Selectivity index was also determined for each compound as follows: SI = CC50/IC50. Data were analyzed with Kaleidagraph (Synergy). The statistical significance of differences was determined with the Student’s t-test (* p < 0.05; ** p < 0.01).

[6] = test system: intracellular L. donovani amastigotes; set-up: method as in PMID 16949702; conditions: at 1.94 μM; cited from earlier work
[7] = 1 μM protein, 1 mM ATP, saturating RNA, read-out: IC50 of eIF4AIMus ATPase activity
[8] = Leishmania infantum, Macrophage, 24 h

T1 sequence (P60843 whole entry): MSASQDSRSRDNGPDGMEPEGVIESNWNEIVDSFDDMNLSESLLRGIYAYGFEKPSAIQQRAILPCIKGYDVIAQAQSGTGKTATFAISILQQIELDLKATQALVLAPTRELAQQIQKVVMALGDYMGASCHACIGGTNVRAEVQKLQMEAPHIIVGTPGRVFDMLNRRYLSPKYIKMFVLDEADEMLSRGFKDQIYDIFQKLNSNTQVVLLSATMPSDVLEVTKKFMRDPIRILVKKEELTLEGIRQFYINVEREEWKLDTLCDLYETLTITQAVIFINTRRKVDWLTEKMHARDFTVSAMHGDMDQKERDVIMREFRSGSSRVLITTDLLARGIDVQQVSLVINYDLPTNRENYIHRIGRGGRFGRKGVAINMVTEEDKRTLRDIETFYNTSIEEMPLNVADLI

Row | Molecule | IC50 [1, 7] | IC50 [2] | inhibition at 500 µM ([2]; 500 μM compound, phosphate released after 45 min, 96-well screen, read-out: percentage of inhibition of LieIF ATPase activity) | CC50 at 24 h [3] | IC50 [4] | IC50 [5, 8] | IC50 [1] | IC50 ([1]; read-out: IC50 of eIF4AIMus ATPase activity, 1 μM protein, value printed in mM in text) | effect on the ATPase activity of eIF4AIMus in screen [1] | IC50 ([2]; read-out: IC50 of LieIF ATPase activity, 1 μM protein, value printed in mM in text) | effect on the ATPase activity of LieIF in screen [2] | IC50 [5] | reduction of the number of intracellular L. donovani amastigotes [6]
1 | CC(C)CCCC(C)C1CCC2C3CC(N)C4CC(O)CCC4(C)C3CCC12C (mixture of isomers) [Compound 208, 6-α/β-aminocholestanol] | 0.115 ± 0.025 mM | 0.15 ± 0.015 mM | 90% | 43.4 ± 0.1 µM | 4.1 ± 2.6 µM | 1400 ± 100 nM | – | – | – | – | – | – | –
2 | CC(C)CCCC(C)C1CCC2C3CC(=O)C4CC(O)CCC4(C)C3CCC12C (stereo not drawn) [Compound 48, 6-ketocholestanol] | – | > 1 mM | – | 81.4 ± 2.4 µM | 39.1 ± 0.8 µM | 4200 ± 100 nM | > 1 mM | ≤ 1 mM | demonstrated inhibition | ≤ 1 mM | demonstrated inhibition | – | –
3 | CC(C)CCCC(C)C1CCC2C3CC(N)C4CC(O)CCC4(C)C3CCC12C (stereo not drawn) [Compound 20, 6-α-aminocholestanol] | 0.185 ± 0.025 mM | 0.16 ± 0.025 mM | – | 35.2 ± 1.3 µM | 3.6 ± 0.1 µM | < 1000 nM | – | – | demonstrated inhibition | – | demonstrated inhibition | 900 nM | –
4 | 7-α/β-aminocholesterol | – | – | – | – | – | – | – | – | – | – | – | – | 59%
